From EP2951180B1, “2,6,7,8 SUBSTITUTED PURINES AS HDM2 INHIBITORS” (Merck Sharp & Dohme Corp., priority 2013, dated 2014)

Molecular target: T1, HDM2 (Homo sapiens, UniProt Q00987)
T1 construct: Thioredoxin (N); made in house; host or cells: E. coli strain BL21(DE3)Rosetta
Test: HDM2 FRET assay (inhibition of binding of FITC labeled p53-pocket peptide to HDM2)
Conditions: 0.5 nM HDM2 (residues 17 to 125), 3nM peptide, two hour incubation at room temperature; read-out: FRET IC50
Outline: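 Compounds were tested in 10-point serial dilution against 0.5 nM recombinant HDM2 binding 3 nM fluorescein-labeled p53-pocket peptide. Detection used 0.25 nM terbium cryptate anti-6xHis antibody in PBS buffer containing 0.01% BSA and 0.01% Tween-20.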

T1 sequence (Q00987 17-125): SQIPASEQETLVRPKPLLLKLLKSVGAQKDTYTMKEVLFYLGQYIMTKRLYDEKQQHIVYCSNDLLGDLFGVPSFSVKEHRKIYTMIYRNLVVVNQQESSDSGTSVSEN

Row | SMILES | IC50 [nM]
1 | C[C@@H]1[C@@H](C)OCCN1c1nc2nc(-c3n[nH]c(=O)o3)nc(-c3cncc(Cl)c3)c2n1C[C@H]1CC[C@H](C)CC1 [Example 16.140, 5-{6-(5-chloropyridin-3-yl)-8-[(2R,3R)-2,3-dimethylmorpholin-4-yl]-7-[(trans-4-methylcyclohexyl)methyl]-7H-purin-2-yl}-1,3,4-oxadiazol-2(3H)-one] | 9.45
2 | C[C@H]1OCCN(c2nc3nc(-c4n[nH]c(=O)o4)nc(-c4cccc(Cl)c4)c3n2C[C@H]2CC[C@H](C)CC2)[C@@H]1c1ccccc1 [Example 16.142, 5-{6-(3-chlorophenyl)-7-[(trans-4-methylcyclohexyl)methyl]-8-[(2R,3R)-2-methyl-3-phenylmorpholin-4-yl]-7H-purin-2-yl} - 1,3,4-oxadiazol-2(3H)-one] | 1.5
3 | C[C@H]1CC[C@H](Cn2c(N3CCOCC34CCC4)nc3nc(-c4noc(=O)[nH]4)nc(-c4cncc(Cl)c4)c32)CC1 [Example 16.144, 3-[6-(5-chloropyridin-3-yl)-7-[(trans-4-methylcyclohexyl)methyl]-8-(8-oxa-5-azaspiro[3.5]non-5-yl)-7H-purin-2-yl]-1,2,4-oxadiazol-5(4H)-one] | 19.1
4 | C[C@@H]1COC[C@@H](C)N1c1nc2nc(-c3n[nH]c(=O)o3)nc(-c3cccc(Cl)c3)c2n1C[C@H]1CC[C@H](C)CC1 [Example 16.147, 5-{6-(3-chlorophenyl)-8-[(3R,5R)-3,5-dimethylmorpholin-4-yl]-7-[(trans-4-methylcyclohexyl)methyl]-7H-purin-2-yl}-1,3,4-oxadiazol-2(3H)-one] | 5.52
5 | CN(C)C(=O)[C@@H]1CCCN1c1nc2nc(-c3noc(=O)[nH]3)nc(-c3cccc(Cl)c3)c2n1C[C@H]1CC[C@H](C)CC1 [Example 16.148, 1-[6-(3-chlorophenyl)-7-[(trans-4-methylcyclohexyl)methyl]-2-(5-oxo-4,5-dihydro-1,2,4-oxadiazol-3-yl)-7H-purin-8-yl]-N,N-dimethyl-L-prolinamide] | 15.1
6 | COC[C@@H]1CC[C@@H](COC)N1c1nc2nc(-c3noc(=O)[nH]3)nc(-c3cccc(Cl)c3)c2n1C[C@H]1CC[C@H](C)CC1 [Example 16.149, 3-{8-[(2S,5S)-2,5-bis(methoxymethyl)pyrrolidin-1-yl]-6-(3-chlorophenyl)-7-[(trans-4-methylcyclohexyl)methyl]-7H-purin-2-yl}-1,2,4-oxadiazol-5(4H)-one] | 3.77
7 | CC[C@@H]1[C@@H](C)OCCN1c1nc2nc(-c3noc(=O)[nH]3)nc(-c3cncc(Cl)c3)c2n1C[C@H]1CC[C@H](C)CC1 [Example 16.152, 3-{6-(5-chloropyridin-3-yl)-8-[(2R,3R)-3-ethyl-2-methylmorpholin-4-yl]-7-[(trans-4-methylcyclohexyl)methyl]-7H-purin-2-yl}-1,2,4-oxadiazol-5(4H)-one] | 5.68
8 | CC[C@@H]1[C@@H](C)OCCN1c1nc2nc(-c3n[nH]c(=O)o3)nc(-c3cncc(Cl)c3)c2n1C[C@H]1CC[C@H](C)CC1 [Example 16.153, 5-{6-(5-chloropyridin-3-yl)-8-[(2R,3R)-3-ethyl-2-methylmorpholin-4-yl]-7-[(trans-4-methylcyclohexyl)methyl]-7H-purin-2-yl}-1,3,4-oxadiazol-2(3H)-one] | 10
9 | COc1ncc(Cl)cc1-c1nc(-c2noc(=O)[nH]2)nc2nc(N3CCOC[C@H]3c3ccccc3)n(C[C@H]3CC[C@H](C)CC3)c12 [Example 16.156, 3-{6-(5-chloro-2-methoxypyridin-3-yl)-7-[(trans-4-methylcyclohexyl)methyl]-8-[(3R)-3-phenylmorpholin-4-yl]-7H-purin-2-yl}-1,2,4-oxadiazol-5(4H)-one] | 0.851
10 | COc1ncc(Cl)cc1-c1nc(-c2n[nH]c(=O)o2)nc2nc(N3CCOC[C@H]3c3ccccc3)n(C[C@H]3CC[C@H](C)CC3)c12 [Example 16.157, 5-{6-(5-chloro-2-methoxypyridin-3-yl)-7-[(trans-4-methylcyclohexyl)methyl]-8-[(3R)-3-phenylmorpholin-4-yl]-7H-purin-2-yl} - 1,3,4-oxadiazol-2(3H)-one] | 0.882
